Earlier results as cited in article PMC9366781 (ACS Omega, 2022).
Where two headings read alike, the source gives them in different places.

System: EGFR

Substance | affinity to the EGFR (different EGFR-positive cell lines (among these A431, MDA-MB-468, U87MG)) | affinity to the EGFR (same study as GE11 monomer) [nM]
Tyr-His-Trp-Tyr-Gly-Tyr-Thr-Pro-Gln-Asn-Val-Ile [GE11] | more than 1 mM | –
hEGF: endogenous EGFR ligand human epidermal growth factor, internal reference standard | – | 5.1 ± 0.9
